species on record: Homo sapiens; experiment: Inhibition of human 5 alpha reductase assessed as -log of ratio of IC50 of drug to the IC50 of reference compound

`CN1C(=O)C=C[C@]2(C)[C@H]3CC[C@@]4(C)[C@@H](CC[C@@]45CCCO5)[C@@H]3CC[C@@H]12` and `C[C@]12C=CC(=O)N[C@@H]1CC[C@@H]1[C@@H]2CC[C@@]2(C)[C@H]1CC[C@@]21CCCO1` are within 0.2 log units of each other in -log(RatioIC50): -3.1 for the first, -3 for the second.

Going from `CCC(C)C(=O)[C@H]1CC[C@H]2[C@@H]3CC[C@H]4N(C)C(=O)C=C[C@]4(C)[C@H]3CC[C@]12C` (stereo partly specified) to `CC(C)CC(=O)[C@H]1CC[C@H]2[C@@H]3CC[C@H]4N(C)C(=O)C=C[C@]4(C)[C@H]3CC[C@]12C`, the -log(RatioIC50) rises from -1.7 to -1.48.

First: COC(=O)[C@@H](C)[C@H]1CC[C@H]2[C@@H]3CC[C@H]4N(C)C(=O)C=C[C@]4(C)[C@H]3CC[C@]12C
Second: COC(=O)[C@@H](C)[C@H]1CC[C@H]2[C@@H]3CC[C@H]4NC(=O)C=C[C@]4(C)[C@H]3CC[C@]12C
The -log(RatioIC50) of the first is lower: -2.18 for the first, -1.48 for the second.

First: CCC(C)C(=O)[C@H]1CC[C@H]2[C@@H]3CC[C@H]4NC(=O)C=C[C@]4(C)[C@H]3CC[C@]12C (stereo partly specified)
Second: CC(C)CC(=O)[C@H]1CC[C@H]2[C@@H]3CC[C@H]4NC(=O)C=C[C@]4(C)[C@H]3CC[C@]12C
The -log(RatioIC50) of the first is lower: -0.881 for the first, -0.255 for the second.

Going from `CN1C(=O)C=C[C@]2(C)[C@H]3CC[C@]4(C)[C@@H](C(=O)c5ccc[nH]5)CC[C@H]4[C@@H]3CC[C@@H]12` to `C[C@]12C=CC(=O)N[C@@H]1CC[C@@H]1[C@@H]2CC[C@]2(C)[C@@H](C(=O)c3ccc[nH]3)CC[C@@H]12`, the -log(RatioIC50) rises from -1.52 to -1.

Going from `CC(C)N(C(=O)[C@H]1CC[C@H]2[C@@H]3CC=C4N(C)C(=O)C=C[C@]4(C)[C@H]3CC[C@]12C)C(C)C` to `CC(C)N(C(=O)[C@H]1CC[C@H]2[C@@H]3CC=C4N(C)C(=O)CC[C@]4(C)[C@H]3CC[C@]12C)C(C)C`, the -log(RatioIC50) rises from -1.43 to -0.204.

Compared with `CCNC(=O)[C@H]1CC[C@H]2[C@@H]3CC[C@H]4NC(=O)C=C[C@]4(C)[C@H]3CC[C@]12C`, `C[C@]12C=CC(=O)N[C@@H]1CC[C@@H]1[C@@H]2CC[C@]2(C)[C@@H](C(N)=O)CC[C@@H]12` is lower in -log(RatioIC50): -1.18 for the first, -1.92 for the second.

Compared with `CCNC(=O)[C@H]1CC[C@H]2[C@@H]3CC[C@H]4N(C)C(=O)C=C[C@]4(C)[C@H]3CC[C@]12C`, `CN1C(=O)C=C[C@]2(C)[C@H]3CC[C@]4(C)[C@@H](C(=O)NC(C)(C)C)CC[C@H]4[C@@H]3CC[C@@H]12` is higher in -log(RatioIC50): -2.18 for the first, -0.778 for the second.

First: CCOC(=O)/C=C1\CC[C@H]2[C@@H]3CC=C4N(C)C(=O)CC[C@]4(C)[C@H]3CC[C@]12C
Second: CNC(=O)[C@H]1CC[C@H]2[C@@H]3CC=C4N(C)C(=O)CC[C@]4(C)[C@H]3CC[C@]12C
The -log(RatioIC50) of the first is lower: -2 for the first, -1.57 for the second.

Compared with `COC(=O)[C@H]1CC[C@H]2[C@@H]3CC[C@H]4NC(=O)C=C[C@]4(C)[C@H]3CC[C@]12C`, `CC(C)(C)NC(=O)[C@H]1CC[C@H]2[C@@H]3CC[C@H]4NC(=O)C=C[C@]4(C)[C@H]3CC[C@]12C` is higher in -log(RatioIC50): -1.56 for the first, 0.26 for the second.

First: CCN(CC)C(=O)[C@H]1CC[C@H]2[C@@H]3CC=C4N(C)C(=O)CC[C@]4(C)[C@H]3CC[C@]12C
Second: CCN(CC)C(=O)[C@H]1CC[C@H]2[C@@H]3CC[C@H]4N(C)C(=O)C=C[C@]4(C)[C@H]3CC[C@]12C
The -log(RatioIC50) of the first is higher: -0.653 for the first, -1.34 for the second.

Compared with `C[C@]12C=CC(=O)N[C@@H]1CC[C@@H]1[C@@H]2CC[C@]2(C)[C@@H](C(=O)Sc3ccccn3)CC[C@@H]12`, `C[C@]12C=CC(=O)N[C@@H]1CC[C@@H]1[C@@H]2CC[C@]2(C)[C@@H](O)CC[C@@H]12` is lower in -log(RatioIC50): 0 for the first, -2 for the second.

First: CC(C)N(C(=O)[C@H]1CC[C@H]2[C@@H]3CC[C@H]4NC(=O)C=C[C@]4(C)[C@H]3CC[C@]12C)C(C)C
Second: CC(C)N(C(=O)[C@H]1CC[C@H]2[C@@H]3CC[C@H]4N(C)C(=O)C=C[C@]4(C)[C@H]3CC[C@]12C)C(C)C
The -log(RatioIC50) of the first is higher: -0.204 for the first, -1 for the second.

`CC(C)N(C(=O)[C@H]1CC[C@H]2[C@@H]3CC=C4NC(=O)CC[C@]4(C)[C@H]3CC[C@]12C)C(C)C` and `CCN(CC)C(=O)[C@H]1CC[C@H]2[C@@H]3CC[C@H]4NC(=O)C=C[C@]4(C)[C@H]3CC[C@]12C` are within 0.2 log units of each other in -log(RatioIC50): -0.602 for the first, -0.785 for the second.

Going from `CC(C)(C)CC(C)(C)NC(=O)[C@H]1CC[C@H]2[C@@H]3CC[C@H]4NC(=O)C=C[C@]4(C)[C@H]3CC[C@]12C` to `CN1C(=O)C=C[C@]2(C)[C@H]3CC[C@]4(C)[C@@H](C(=O)NC(C)(C)CC(C)(C)C)CC[C@H]4[C@@H]3CC[C@@H]12`, the -log(RatioIC50) falls from -0.079 to -0.477.

With `CCN(CC)C(=O)/C=C/[C@H]1CC[C@H]2[C@@H]3CC[C@H]4N(C)C(=O)CC[C@]4(C)[C@H]3CC[C@]12C` the -log(RatioIC50) was -0.301.
